Test system: class I antigen presentation gene expression in MCC cell lines
Assay: RNA-seq / DESeq2 differential expression of MCC cell lines at baseline and after IFN-γ stimulation
Type: cell-based, human
Conditions: 11 MCC cell lines, baseline vs IFNγ, negative LFC = upregulation in IFNγ-treated
Method: FIG. 2A comprises RNA-seq heatmaps of class I antigen presentation gene expression in MCC lines and controls.
FIG. 2B is a volcano plot of differentially expressed genes (genes below FDR cutoff 0.01 are shown in yellow) between baseline and IFN-γ-treated MCC cell lines. Differential expression analysis was performed using DESeq2, and negative LFC indicates increased expression in +IFN-γ samples. IFN genes are highlighted in red.
RNA samples were first assessed for quality using the Agilent Bioanalyzer (DV200 metric). One hundred ng of RNA were used as the input for first strand cDNA synthesis using Superscript III reverse transcriptase and Illumina's TruSeq RNA Access Sample Prep Kit. Synthesis of the second strand of cDNA was followed by indexed adapter ligation with UMI (unique molecular index) adaptors. Subsequent PCR amplification enriched for adapted fragments. Amplified libraries were quantified, normalized, pooled, and hybridized with exome targeting oligos. Following hybridization, bead clean-up, elution and PCR was performed to prepare library pools for sequencing on Illumina flowcell lanes. Transcriptomes were sequenced to a coverage of at least 50 million reads in pairs.
Raw fastq files for fibroblast and keratinocyte control lines were downloaded from SRA using R Bioconductor package SRAdb (Mayakonda et al. (2018) supra; Zhu et al. (2013) BMC Bioinformatics 14 (1): 1-4) using accession codes SRP126422 (4 replicates from control samples ‘NN’) and SRP131347 (6 replicates with condition: control and genotype: control). These fastq files, along with those for the mkl1 and waga cell lines, were aligned using STAR version 2.7.3a (Dobin et al. (2013) Bioinformatics 29 (1): 15-21), using index genome reference file downloaded from ftp.ebi.ac.uk/pub/databases/gencode/Gencode_human/release_19/GRCh37.p13.genome.fa.gz, transcript annotation file downloaded from data.broadinstitute.org/snowman/hg19/star/gencode.v19.annotation.gtf, and with the following options: --twopassMode Basic, --outSAMstrandField intronMotif, --alignIntronMax 1000000, --alignMatesGapMax 1000000, --sjdbScore 2, --outSAMtype BAM Unsorted, --outSAMattributes NH HI NM MD AS XS, --outFilterType BySJout, --outSAMunmapped Within, --genomeLoad NoSharedMemory, --outFilterScoreMinOverLread 0, --outFilterMatchNminOverLread 0, --outFilterMismatchNmax 999, and outFilterMultimapNmax 20. Duplicates were marked with picard MarkDuplicates version 2.22.0-SNAPSHOT.
RNA-sequencing bam files for MCC tumor and cell line samples were downloaded from the Broad Genomics Firecloud/Terra platform using the Google Cloud Storage command line tool gsutil version 4.5 (github.com/GoogleCloudPlatform/gsutil/).
Gene counts were obtained from bam files using featureCounts version 2.0.0 (doi.org/10.1093/bioinformatics/btt656). Very lowly expressed genes with average count across samples less than 1 were excluded from analysis. Between-sample distance metrics were computed using the Euclidean distance on the vectors of variance-stabilized counts obtained from the vst function in the DESeq2 R Bioconductor package ([…]; Love et al. (2014) Genome Biology 15 (12): 550).
Differential expression analysis was carried out between (1) viral positive and viral negative samples (adjusting for cell line or tumor as a covariate), (2) cell line and tumor samples (adjusting for viral status as a covariate), and (3) IFNγ plus and minus samples (adjusting for viral status as a covariate) using the negative binomial GLM Wald test of DESeq2, where significance was assessed using the p-values adjusted for multiple comparisons under default settings. To account for potential global gene expression differences among sample groups, RUVg (Risso et al. (2014) […] 32 (9): 896-902) was used to estimate latent factors of unwanted variation from the list of housekeeping genes downloaded from www.tau.ac.il/˜elieis/HKG/HK_genes.txt. […]

## IFN-y: type II interferon, recombinant human, used to treat MCC cells
  log2FoldChange PLCH1 (ENSG00000114805.12): −3.192
  log2FoldChange PLSCR1 (ENSG00000188313.8): −1.918
  log2FoldChange PSMA1 (ENSG00000129084.13): −0.53
  log2FoldChange PSMA5 (ENSG00000143106.8): −0.7265
  log2FoldChange PSMB8 (ENSG00000204264.4): −4.624
  log2FoldChange PSMB8-AS1 (ENSG00000204261.4): −4.829
  log2FoldChange PSMB9 (ENSG00000240065.3): −8.037
  log2FoldChange RAB19 (ENSG00000146955.6): −3.348
  log2FoldChange RALB (ENSG00000144118.9): −1.199
  log2FoldChange RARRES3 (ENSG00000133321.6): −9.075
  log2FoldChange RASGRP3 (ENSG00000152689.13): −3.804
  log2FoldChange RCN1 (ENSG00000049449.4): −0.8151
  log2FoldChange RNASET2 (ENSG00000026297.11): −1.4
  log2FoldChange RNF19B (ENSG00000116514.12): −0.8512
  log2FoldChange RPS6KA2-AS1 (ENSG00000231654.1): −4.029
  log2FoldChange RSAD2 (ENSG00000134321.7): −4.639
  log2FoldChange RTP4 (ENSG00000136514.2): −9.766
  log2FoldChange RUFY4 (ENSG00000188282.8): −4.154
  log2FoldChange SAMD9L (ENSG00000177409.7): −9.221
  log2FoldChange SCYL3 (ENSG00000000457.9): −0.6381
  log2FoldChange SERPING1 (ENSG00000149131.11): −10.06
  log2FoldChange SERPINI2 (ENSG00000114204.10): −4.132
  log2FoldChange SLC15A3 (ENSG00000110446.5): −6.048
  log2FoldChange SMCO3 (ENSG00000179256.2): −4.85
  log2FoldChange SP100 (ENSG00000067066.12): −6.178
  log2FoldChange SP110 (ENSG00000135899.12): −5.912
  log2FoldChange SP140 (ENSG00000079263.14): −4.071
  log2FoldChange SP140L (ENSG00000185404.12): −4.749
  log2FoldChange SPATA1 (ENSG00000122432.12): −1.828
  log2FoldChange SRD5A3-AS1 (ENSG00000249700.4): −1.935
  log2FoldChange STAT1 (ENSG00000115415.14): −4.434
  log2FoldChange STAT2 (ENSG00000170581.9): −2.028
  log2FoldChange SYNJ2 (ENSG00000078269.9): −1.182
  log2FoldChange TAP1 (ENSG00000168394.9): −6.326
  log2FoldChange TAP2 (ENSG00000204267.9): −4.845
  log2FoldChange TAPBP (ENSG00000231925.7): −2.025
  log2FoldChange TAPBPL (ENSG00000139192.7): −2.548
  log2FoldChange TCAF2 (ENSG00000170379.15): −3.033
  log2FoldChange TDRD7 (ENSG00000196116.6): −0.8648
  log2FoldChange TLR3 (ENSG00000164342.8): −6.019
  log2FoldChange TMEM108-AS1 (ENSG00000251011.1): −3.649
  log2FoldChange TMEM140 (ENSG00000146859.6): −7.381
  log2FoldChange TNFRSF14 (ENSG00000157873.13): −3.995
  log2FoldChange TNFSF10 (ENSG00000121858.6): −4.43
  log2FoldChange TRIM5 (ENSG00000132256.14): −4.923
  log2FoldChange TRIM21 (ENSG00000132109.8): −5.586
  log2FoldChange TRIM22 (ENSG00000132274.11): −9.394
  log2FoldChange TRIM26 (ENSG00000234127.4): −0.6803
  log2FoldChange TRIM56 (ENSG00000169871.8): −2.411
  log2FoldChange UBA7 (ENSG00000182179.6): −5.004
  log2FoldChange UBE2L6 (ENSG00000156587.11): −4.982
  log2FoldChange UBR2 (ENSG00000024048.6): −0.9247
  log2FoldChange USP33 (ENSG00000077254.10): −0.3836
  log2FoldChange USP42 (ENSG00000106346.7): −0.5211
  log2FoldChange WDR49 (ENSG00000174776.6): −4.564
  log2FoldChange ZC3HAV1 (ENSG00000105939.8): −1.2
ACP5 ENSG00000102575.6
  log2FoldChange: −3.911
B2M ENSG00000166710.13
  log2FoldChange: −3.927
BCO1 ENSG00000135697.5
  log2FoldChange: −3.705
BST2 ENSG00000130303.8
  log2FoldChange: −9.567
C19orf38 ENSG00000214212.4
  log2FoldChange: −2.581
C19orf66 ENSG00000130813.13
  log2FoldChange: −3.602
CAPN3 ENSG00000092529.18
  log2FoldChange: −1.639
CCDC194 ENSG00000269720.1
  log2FoldChange: −5.08
CCL8 ENSG00000108700.4
  log2FoldChange: −4.991
CCL25 ENSG00000131142.9
  log2FoldChange: −5.742
CEACAM1 ENSG00000079385.17
  log2FoldChange: −6.01
CIITA ENSG00000179583.13
  log2FoldChange: −10.08
CX3CL1 ENSG00000006210.6
  log2FoldChange: −2.039
DGLUCY ENSG00000133943.16
  log2FoldChange: −1.417
DHX58 ENSG00000108771.8
  log2FoldChange: −3.063
DLGAP1-AS5 ENSG00000261520.1
  log2FoldChange: −7.006
DOCK9 ENSG00000088387.13
  log2FoldChange: −1.102
DRAM1 ENSG00000136048.9
  log2FoldChange: −2.646
ENSG00000225131.1 (symbol NA)
  log2FoldChange: −1.967
ENSG00000238045.5 (symbol NA)
  log2FoldChange: −1.974
ENSG00000238528.1 (symbol NA)
  log2FoldChange: −1.287
ENSG00000258733.1 (symbol NA)
  log2FoldChange: −3.393

— patent publication US20230203485A1, “METHODS FOR MODULATING MHC-I EXPRESSION AND IMMUNOTHERAPY USES THEREOF” (Dana-Farber Cancer Institute, Inc., priority 2020, published 2023)
